According to ChEMBL document CHEMBL3797029, “Purinylpyridinylamino-based DFG-in/αC-helix-out B-Raf inhibitors: Applying mutant versus wild-type B-Raf selectivity indices for compound profiling” (Bioorg Med Chem, 2016):

What was measured:
Set-up in all cases: scale not given: the % may be the effect or the level left
[1] = target: Mitogen-activated protein kinase 10 (Homo sapiens) (UniProt P53779); experiment: Inhibition of partial length wild type human JNK3 expressed in mammalian system assessed as enzyme activity at 1 uM relative to control
[2] = target: Ephrin type-A receptor 4 (Homo sapiens) (UniProt P54764); experiment: Inhibition of partial length wild type human EPHA4 expressed in bacterial system assessed as enzyme activity at 1 uM relative to control
[3] = target: Tyrosine-protein kinase ABL1 (Homo sapiens) (UniProt P00519); experiment: Inhibition of partial length wild type phosphorylated human ABL1 expressed in mammalian system assessed as enzyme activity at 1 uM relative to control
[4] = target: 5'-AMP-activated protein kinase catalytic subunit alpha-1 (Homo sapiens) (UniProt Q13131); experiment: Inhibition of partial length wild type human AMPKalpha1 expressed in bacterial system assessed as enzyme activity at 1 uM relative to control
[5] = target: Bone morphogenetic protein receptor type-1A (Homo sapiens) (UniProt P36894); experiment: Inhibition of partial length wild type human BMPR1A expressed in bacterial system assessed as enzyme activity at 1 uM relative to control
[6] = target: Calcium/calmodulin-dependent protein kinase type IV (Homo sapiens) (UniProt Q16566); experiment: Inhibition of partial length wild type human CAMK4 expressed in bacterial system assessed as enzyme activity at 1 uM relative to control
[7] = target: Cyclin-dependent kinase 8 (Homo sapiens) (UniProt P49336); experiment: Inhibition of partial length wild type human CDK8 expressed in bacterial system assessed as enzyme activity at 1 uM relative to control
[8] = target: Dual specificity protein kinase CLK4 (Homo sapiens) (UniProt Q9HAZ1); experiment: Inhibition of partial length wild type human CLK4 expressed in bacterial system assessed as enzyme activity at 1 uM relative to control
[9] = target: Casein kinase I isoform delta (Homo sapiens) (UniProt P48730); experiment: Inhibition of full length wild type human CSNK1D expressed in bacterial system assessed as enzyme activity at 1 uM relative to control
[10] = target: Serine/threonine-protein kinase/endoribonuclease IRE1 (Homo sapiens) (UniProt O75460); experiment: Inhibition of partial length wild type human ERN1 expressed in mammalian system assessed as enzyme activity at 1 uM relative to control
[11] = target: Interleukin-1 receptor-associated kinase 4 (Homo sapiens) (UniProt Q9NWZ3); experiment: Inhibition of partial length wild type human IRAK4 expressed in mammalian system assessed as enzyme activity at 1 uM relative to control
[12] = target: Serine/threonine-protein kinase MARK1 (Homo sapiens) (UniProt Q9P0L2); experiment: Inhibition of partial length wild type human MARK1 expressed in bacterial system assessed as enzyme activity at 1 uM relative to control
[13] = target: Dual specificity mitogen-activated protein kinase kinase 3 (Homo sapiens) (UniProt P46734); experiment: Inhibition of full length wild type human MEK3 expressed in mammalian system assessed as enzyme activity at 1 uM relative to control
[14] = target: Mitogen-activated protein kinase 12 (Homo sapiens) (UniProt P53778); experiment: Inhibition of full length wild type human p38gamma expressed in bacterial system assessed as enzyme activity at 1 uM relative to control
[15] = target: Phosphatidylinositol 4,5-bisphosphate 3-kinase catalytic subunit alpha isoform (Homo sapiens) (UniProt P42336); experiment: Inhibition of partial length wild type human PIK3CA expressed in mammalian system assessed as enzyme activity at 1 uM relative to control
[16] = target: Serine/threonine-protein kinase PLK1 (Homo sapiens) (UniProt P53350); experiment: Inhibition of partial length wild type human PLK1 expressed in mammalian system assessed as enzyme activity at 1 uM relative to control
[17] = target: Protein kinase C epsilon type (Homo sapiens) (UniProt Q02156); experiment: Inhibition of partial length wild type human PRKCE expressed in mammalian system assessed as enzyme activity at 1 uM relative to control
[18] = target: Serine/threonine-protein kinase 32B (Homo sapiens) (UniProt Q9NY57); experiment: Inhibition of full length wild type human YANK2 expressed in bacterial system assessed as enzyme activity at 1 uM relative to control
[19] = target: Protein-tyrosine kinase 6 (Homo sapiens) (UniProt Q13882); experiment: Inhibition of partial length wild type human BRK expressed in bacterial system assessed as enzyme activity at 1 uM relative to control
[20] = target: Angiopoietin-1 receptor (Homo sapiens) (UniProt Q02763); experiment: Inhibition of partial length wild type human TIE2 expressed in bacterial system assessed as enzyme activity at 1 uM relative to control
[21] = target: Aurora kinase A (Homo sapiens) (UniProt O14965); experiment: Inhibition of partial length wild type human AURKA expressed in mammalian system assessed as enzyme activity at 1 uM relative to control
[22] = target: Mast/stem cell growth factor receptor Kit (Homo sapiens) (UniProt P10721); experiment: Inhibition of partial length wild type human KIT expressed in bacterial system assessed as enzyme activity at 1 uM relative to control
[23] = target: Mitogen-activated protein kinase kinase kinase 19 (Homo sapiens) (UniProt Q56UN5); experiment: Inhibition of partial length wild type human YSK4 expressed in mammalian system assessed as enzyme activity at 1 uM relative to control
[24] = target: Casein kinase II subunit alpha (Homo sapiens) (UniProt P68400); experiment: Inhibition of full length wild type human CSNK2A1 expressed in mammalian system assessed as enzyme activity at 1 uM relative to control
[25] = target: Fibroblast growth factor receptor 1 (Homo sapiens) (UniProt P11362); experiment: Inhibition of partial length wild type human FGFR1 expressed in bacterial system assessed as enzyme activity at 1 uM relative to control
[26] = target: Mitogen-activated protein kinase kinase kinase 1 (Homo sapiens) (UniProt Q13233); experiment: Inhibition of partial length wild type human MAP3K1 expressed in mammalian system assessed as enzyme activity at 1 uM relative to control
[27] = target: Serine/threonine-protein kinase OSR1 (Homo sapiens) (UniProt O95747); experiment: Inhibition of full length wild type human OSR1 expressed in mammalian system assessed as enzyme activity at 1 uM relative to control
[28] = target: RAC-alpha serine/threonine-protein kinase (Homo sapiens) (UniProt P31749); experiment: Inhibition of partial length wild type human AKT1 expressed in bacterial system assessed as enzyme activity at 1 uM relative to control
[29] = target: Cyclin-dependent kinase 18 (Homo sapiens) (UniProt Q07002); experiment: Inhibition of full length wild type human PCTK3 expressed in bacterial system assessed as enzyme activity at 1 uM relative to control
[30] = target: Tyrosine-protein kinase Lyn (Homo sapiens) (UniProt P07948); experiment: Inhibition of partial length wild type human LYN expressed in bacterial system assessed as enzyme activity at 1 uM relative to control
[31] = target: Ephrin type-B receptor 3 (Homo sapiens) (UniProt P54753); experiment: Inhibition of partial length wild type human EPHB3 expressed in bacterial system assessed as enzyme activity at 1 uM relative to control
[32] = test system: RIPK2 (Receptor-interacting serine/threonine-protein kinase 2); experiment: Inhibition of partial length wild type human RIPK2 expressed in bacterial system assessed as enzyme activity at 1 uM relative to control

Chain of RAC-alpha serine/threonine-protein kinase (Homo sapiens) (P31749 whole entry): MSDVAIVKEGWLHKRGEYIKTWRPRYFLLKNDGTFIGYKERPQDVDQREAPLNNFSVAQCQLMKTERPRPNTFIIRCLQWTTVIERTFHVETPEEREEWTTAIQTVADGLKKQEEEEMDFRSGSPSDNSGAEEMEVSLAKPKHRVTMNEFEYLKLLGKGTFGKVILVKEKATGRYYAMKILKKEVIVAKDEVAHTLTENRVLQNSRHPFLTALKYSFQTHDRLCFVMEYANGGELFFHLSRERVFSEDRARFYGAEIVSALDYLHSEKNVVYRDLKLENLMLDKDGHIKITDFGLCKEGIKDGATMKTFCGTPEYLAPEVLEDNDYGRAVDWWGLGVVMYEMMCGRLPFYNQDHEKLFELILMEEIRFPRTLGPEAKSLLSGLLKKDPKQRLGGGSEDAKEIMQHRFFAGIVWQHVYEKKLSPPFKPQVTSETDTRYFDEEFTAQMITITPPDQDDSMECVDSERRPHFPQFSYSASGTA
Chain of Mitogen-activated protein kinase kinase kinase 19 (Homo sapiens) (Q56UN5 whole entry): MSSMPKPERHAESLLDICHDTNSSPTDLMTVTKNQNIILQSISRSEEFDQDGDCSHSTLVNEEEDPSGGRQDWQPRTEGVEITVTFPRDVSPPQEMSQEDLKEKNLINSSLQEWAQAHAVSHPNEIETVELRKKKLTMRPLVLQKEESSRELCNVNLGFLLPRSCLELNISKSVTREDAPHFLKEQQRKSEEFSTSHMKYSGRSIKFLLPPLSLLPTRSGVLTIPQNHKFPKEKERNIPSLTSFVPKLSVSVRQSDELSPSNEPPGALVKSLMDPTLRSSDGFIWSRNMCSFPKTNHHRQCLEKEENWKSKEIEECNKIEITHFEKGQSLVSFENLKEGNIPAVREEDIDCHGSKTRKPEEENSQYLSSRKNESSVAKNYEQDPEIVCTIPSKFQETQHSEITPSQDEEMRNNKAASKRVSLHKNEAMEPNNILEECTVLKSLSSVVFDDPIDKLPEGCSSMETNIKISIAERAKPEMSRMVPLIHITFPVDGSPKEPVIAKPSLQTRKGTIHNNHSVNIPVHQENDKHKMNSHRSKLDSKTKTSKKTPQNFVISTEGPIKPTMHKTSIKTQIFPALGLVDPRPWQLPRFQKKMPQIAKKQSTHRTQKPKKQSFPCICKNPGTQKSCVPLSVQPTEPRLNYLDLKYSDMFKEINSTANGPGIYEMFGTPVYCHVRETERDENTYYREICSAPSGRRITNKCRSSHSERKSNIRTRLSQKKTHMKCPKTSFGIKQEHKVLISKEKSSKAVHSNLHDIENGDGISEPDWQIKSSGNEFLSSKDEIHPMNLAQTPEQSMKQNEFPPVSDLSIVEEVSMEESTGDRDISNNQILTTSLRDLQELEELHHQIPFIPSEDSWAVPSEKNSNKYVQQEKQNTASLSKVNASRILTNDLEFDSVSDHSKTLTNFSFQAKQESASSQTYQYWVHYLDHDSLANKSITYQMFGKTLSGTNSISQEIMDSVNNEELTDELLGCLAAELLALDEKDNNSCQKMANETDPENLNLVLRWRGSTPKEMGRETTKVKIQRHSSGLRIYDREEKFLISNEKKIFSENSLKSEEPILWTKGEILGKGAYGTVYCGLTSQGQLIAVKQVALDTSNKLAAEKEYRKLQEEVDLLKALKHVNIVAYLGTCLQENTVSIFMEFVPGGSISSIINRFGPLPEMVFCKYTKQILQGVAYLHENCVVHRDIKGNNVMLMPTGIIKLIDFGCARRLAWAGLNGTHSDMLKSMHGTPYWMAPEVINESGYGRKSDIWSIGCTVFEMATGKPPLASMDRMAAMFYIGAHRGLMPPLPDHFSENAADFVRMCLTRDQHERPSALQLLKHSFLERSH
Chain of Dual specificity mitogen-activated protein kinase kinase 3 (Homo sapiens) (P46734 whole entry): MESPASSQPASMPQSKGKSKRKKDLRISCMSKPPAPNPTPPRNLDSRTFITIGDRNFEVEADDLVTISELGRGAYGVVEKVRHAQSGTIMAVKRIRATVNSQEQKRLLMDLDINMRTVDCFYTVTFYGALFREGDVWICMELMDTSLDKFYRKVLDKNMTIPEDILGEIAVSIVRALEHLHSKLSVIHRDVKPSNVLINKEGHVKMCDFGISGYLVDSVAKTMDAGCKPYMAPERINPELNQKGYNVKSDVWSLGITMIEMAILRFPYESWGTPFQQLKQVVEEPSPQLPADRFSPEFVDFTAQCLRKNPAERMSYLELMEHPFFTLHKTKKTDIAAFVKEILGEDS
Chain of Mitogen-activated protein kinase kinase kinase 1 (Homo sapiens) (Q13233 whole entry): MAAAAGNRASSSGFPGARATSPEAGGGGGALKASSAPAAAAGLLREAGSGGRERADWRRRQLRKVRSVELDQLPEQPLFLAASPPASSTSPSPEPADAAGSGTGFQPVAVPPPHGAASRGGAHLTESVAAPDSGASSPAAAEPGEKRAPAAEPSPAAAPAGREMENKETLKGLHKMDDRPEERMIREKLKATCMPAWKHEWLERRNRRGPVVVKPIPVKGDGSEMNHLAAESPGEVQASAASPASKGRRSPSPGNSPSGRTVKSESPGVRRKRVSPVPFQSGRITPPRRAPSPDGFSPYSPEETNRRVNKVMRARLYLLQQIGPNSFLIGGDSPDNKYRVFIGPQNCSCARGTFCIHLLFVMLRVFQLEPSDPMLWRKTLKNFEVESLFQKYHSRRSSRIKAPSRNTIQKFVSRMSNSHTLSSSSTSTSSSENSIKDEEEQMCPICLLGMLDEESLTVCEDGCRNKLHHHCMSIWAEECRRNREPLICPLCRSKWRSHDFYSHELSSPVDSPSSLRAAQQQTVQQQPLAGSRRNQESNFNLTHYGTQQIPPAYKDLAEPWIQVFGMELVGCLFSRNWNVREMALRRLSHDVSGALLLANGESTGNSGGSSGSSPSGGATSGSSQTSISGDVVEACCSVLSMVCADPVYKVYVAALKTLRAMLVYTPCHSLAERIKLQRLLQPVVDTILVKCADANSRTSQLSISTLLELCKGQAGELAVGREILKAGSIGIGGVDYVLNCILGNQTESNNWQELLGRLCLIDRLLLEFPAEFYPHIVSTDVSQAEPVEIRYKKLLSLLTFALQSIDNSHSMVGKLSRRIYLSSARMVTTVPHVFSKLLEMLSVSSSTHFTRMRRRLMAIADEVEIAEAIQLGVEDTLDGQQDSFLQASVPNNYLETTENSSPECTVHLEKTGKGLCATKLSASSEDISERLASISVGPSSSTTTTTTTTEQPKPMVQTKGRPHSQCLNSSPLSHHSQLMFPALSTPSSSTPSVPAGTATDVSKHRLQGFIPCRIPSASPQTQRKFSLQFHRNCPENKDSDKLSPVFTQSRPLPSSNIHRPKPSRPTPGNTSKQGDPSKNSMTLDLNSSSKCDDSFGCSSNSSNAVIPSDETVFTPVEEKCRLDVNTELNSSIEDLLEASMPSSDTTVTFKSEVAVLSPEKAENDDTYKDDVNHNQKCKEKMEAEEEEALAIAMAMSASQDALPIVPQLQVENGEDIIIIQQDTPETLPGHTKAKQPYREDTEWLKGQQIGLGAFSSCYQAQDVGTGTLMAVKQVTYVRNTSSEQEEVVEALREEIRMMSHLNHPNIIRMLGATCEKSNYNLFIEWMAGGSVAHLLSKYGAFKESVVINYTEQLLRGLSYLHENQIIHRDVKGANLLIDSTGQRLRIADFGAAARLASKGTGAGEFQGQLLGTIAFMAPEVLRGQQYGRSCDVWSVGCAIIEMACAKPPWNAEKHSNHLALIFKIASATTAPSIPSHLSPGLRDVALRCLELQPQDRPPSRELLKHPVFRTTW
Chain of Serine/threonine-protein kinase PLK1 (Homo sapiens) (P53350 whole entry): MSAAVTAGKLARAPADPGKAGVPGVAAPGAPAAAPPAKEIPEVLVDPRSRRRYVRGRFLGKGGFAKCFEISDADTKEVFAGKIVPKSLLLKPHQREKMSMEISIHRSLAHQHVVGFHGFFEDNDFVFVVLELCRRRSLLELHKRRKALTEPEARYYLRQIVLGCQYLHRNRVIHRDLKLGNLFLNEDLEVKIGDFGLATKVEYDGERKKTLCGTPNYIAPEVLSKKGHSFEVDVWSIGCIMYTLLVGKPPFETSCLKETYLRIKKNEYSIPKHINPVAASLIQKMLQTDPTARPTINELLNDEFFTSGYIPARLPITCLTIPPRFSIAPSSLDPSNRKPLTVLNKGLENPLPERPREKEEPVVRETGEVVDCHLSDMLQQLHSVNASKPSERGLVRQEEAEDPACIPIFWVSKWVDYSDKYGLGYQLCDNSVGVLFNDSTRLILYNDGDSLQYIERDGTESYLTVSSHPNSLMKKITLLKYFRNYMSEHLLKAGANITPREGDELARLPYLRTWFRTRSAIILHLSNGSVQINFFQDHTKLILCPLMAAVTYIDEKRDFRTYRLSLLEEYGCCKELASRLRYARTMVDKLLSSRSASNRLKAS
Chain of Protein-tyrosine kinase 6 (Homo sapiens) (Q13882 whole entry, looked up): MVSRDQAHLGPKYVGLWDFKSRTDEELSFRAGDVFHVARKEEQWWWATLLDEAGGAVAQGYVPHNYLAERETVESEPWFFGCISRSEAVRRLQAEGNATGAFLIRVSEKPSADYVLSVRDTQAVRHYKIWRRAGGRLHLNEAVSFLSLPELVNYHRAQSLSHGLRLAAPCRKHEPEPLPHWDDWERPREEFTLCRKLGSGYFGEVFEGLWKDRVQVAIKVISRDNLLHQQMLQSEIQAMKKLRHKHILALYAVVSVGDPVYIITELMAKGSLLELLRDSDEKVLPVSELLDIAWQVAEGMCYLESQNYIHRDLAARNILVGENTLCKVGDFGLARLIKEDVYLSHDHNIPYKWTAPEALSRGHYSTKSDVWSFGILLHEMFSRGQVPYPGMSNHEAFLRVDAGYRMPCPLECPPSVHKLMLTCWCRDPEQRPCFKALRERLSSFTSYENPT

CN(C)S(=O)(=O)Nc1ccc(F)c(Nc2ncccc2-c2ncnc3[nH]cnc23)c1F
Activity [1]: 89%
Activity [2]: 90%
Activity [3]: 100%
Activity [4]: 92%
Activity [5]: 63%
Activity [6]: 83%
Activity [7]: 85%
Activity [8]: 70%
Activity [9]: 83%
Activity [10]: 100%
Activity [11]: 99%
Activity [12]: 100%
Activity [13]: 100%
Activity [14]: 100%
Activity [15]: 100%
Activity [16]: 100%
Activity [17]: 87%
Activity [18]: 100%
Activity [19]: 14%
Activity [20]: 63%
Activity [21]: 73%
Activity [22]: 68%
Activity [23]: 63%
Activity [24]: 64%
Activity [25]: 83%
Activity [26]: 83%
Activity [27]: 88%
Activity [28]: 87%
Activity [29]: 89%
Activity [30]: 93%
Activity [31]: 94%
Activity [32]: 40%
